Reference: PubChem BioAssay AID395 (SGCOxCompounds, 2006)

Target: Serine/threonine-protein kinase 16 (Homo sapiens) (UniProt O75716)
Assay: STK16 binders by thermal stabilization, biophysical, recombinant human kinase, DSF (AID 395)
Conditions: SYPRO orange, at 10 µM, protein 2 µM, buffer 10 mM HEPES, stronger effect = higher value

Serine/threonine-protein kinase 16 (Homo sapiens), sequence (O75716 whole entry, looked up): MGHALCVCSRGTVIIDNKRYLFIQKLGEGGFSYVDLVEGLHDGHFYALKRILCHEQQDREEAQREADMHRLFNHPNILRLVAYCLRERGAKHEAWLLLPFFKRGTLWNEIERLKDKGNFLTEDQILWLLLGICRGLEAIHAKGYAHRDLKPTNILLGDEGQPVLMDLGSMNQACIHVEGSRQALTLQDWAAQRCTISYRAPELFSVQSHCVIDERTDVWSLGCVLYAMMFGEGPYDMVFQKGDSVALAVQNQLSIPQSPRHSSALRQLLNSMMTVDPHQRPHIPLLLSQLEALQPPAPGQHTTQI

SMILES	Tm shift (pH 7.5, NaCl 150 mM) [°C]	Tm shift [°C]
OCC(O)CCO/N=C1/C(c2c(O)[nH]c3ccccc23)=Nc2ccccc21 (stereo unspecified)	11.7	
Cc1c(O)cc(O)c2c1OC(c1ccc(O)c(O)c1)C(=O)C2=O (stereo unspecified)	3.29	
Nc1ncnc2c1c(I)cn2[C@@H]1O[C@H](CO)C(O)C1O (stereo partly specified)		3.88
Nc1nc(Nc2ccc(S(N)(=O)=O)cc2)nn1C(=S)Nc1c(F)cccc1F	7.8	
O=c1[nH]c2ncc(-c3cccnc3)nc2n1C1CCCC1		5.29
Clc1cccc(-c2cnc3ccc(NC4CCOCC4)nn23)c1		4
O=Nc1c(-c2c(O)[nH]c3ccccc23)[nH]c2ccccc12		5.13
Nc1cccc(-c2cc3c(Oc4cccc(O)c4)ncnc3[nH]2)c1	5.9	
CCN(CC)CCNC(=O)c1c(C)[nH]c(/C=C2\C(=O)Nc3ccc(Cl)cc32)c1C	6	
CC(O)O/N=C1/C(c2c(O)[nH]c3cc(Br)ccc23)=Nc2ccccc21 (stereo unspecified)	4.2	
CC(C)(C)c1nc2c3cc[nH]c(=O)c3c3cc(F)ccc3c2[nH]1		3.46
Clc1cccc(Nc2ccn3ncc(-c4ccsc4)c3n2)c1		3.69
O=C(Nc1cccc(Nc2nccc(Nc3cccc(C(F)(F)F)c3)n2)c1)C1CC1	5.75	
Cn1cc(/C=C2\C(=O)Nc3ccc(S(N)(=O)=O)cc32)c2ccccc21	4.8	
COC(=O)c1cnc2oc3ccc(O)cc3c2c1-c1ccccc1		5.35
Cc1nc(N)sc1-c1ccnc(Nc2cccc(-n3oo3)c2)n1	10.7	
O=c1c(O)c(-c2ccc(O)c(O)c2)oc2cc(O)ccc12	8.54	
O=C1Nc2ccccc2/C1=C\c1cnc[nH]1		7.49
O=c1[nH]c(O)c2c1c1c3ccccc3nc1n1cncc21	5.4	
c1ccc(-c2cnc3ccc(NCc4cccs4)nn23)cc1		3.62
NCCCn1cc(C2=C(c3c[nH]c4ccccc34)C(=O)NC2=O)c2ccccc21	4.96	
O=C1c2ccccc2-c2n[nH]c3cccc1c23		6.85
NC(=O)Nc1sc(-c2ccccc2)cc1C(N)=O	4.5	
O=c1c(O)c(-c2ccc(O)c(O)c2)oc2cc(O)cc(O)c12	4.75	4.78
O=C1Nc2ccccc2/C1=C/c1ccc[nH]1		4.28

SMILES	Tm shift (pH 7.5, NaCl 150 mM) [°C]	Tm shift [°C]
Cc1cc(C=C2C(=O)C=CC2=O)cc(C)c1O		3.24
Fc1ccc(CNc2ccc3ncc(-c4ccco4)n3n2)cc1		4.18
O=Nc1c(-c2c(O)[nH]c3ccc(I)cc23)[nH]c2ccccc12	4.2	
Clc1ccc(-c2cnn3ccc(NCc4cccnc4)nc23)cc1		3.85
CC(C)C(CO)Nc1nc(Nc2cccc(Cl)c2)c2ncn(C(C)C)c2n1 (stereo unspecified)		3.15
N#C/C(=C1\Nc2ccccc2S1)c1ccnc(NCCc2cccnc2)n1	5.5	
NS(=O)(=O)c1ccc(Nc2nc(OCC3CCCCC3)c3[nH]cnc3n2)cc1	4.1	
O=c1c(O)c(-c2ccc(O)cc2)oc2cc(O)cc(O)c12	3.87	
O=C1C(=O)C(c2cccc(O)c2)Oc2ccccc21 (stereo unspecified)	4.41	
O=c1cc(-c2ccc(O)cc2)oc2cc(O)cc(O)c12		4.78
N=C(N)SCCCn1cc(C2=C(c3c[nH]c4ccccc34)C(=O)NC2=O)c2ccccc21	4.3	
COc1cc(C2Oc3cc(O)cc(O)c3C(=O)C2=O)ccc1O (stereo unspecified)	3.97	
Cc1cc(Nc2nc(-c3ccccc3)nc3ccccc23)n[nH]1	11.1	
CC1N=C2SC=CN2C(=O)C1CCN1CCC(=C(c2ccccc2)c2ccc(F)cc2)CC1 (stereo unspecified)	3.2	3.67
O=C(c1ccc(Nc2nccc(-c3cc4ccccc4s3)n2)cc1)N1CCC(N2CCCC2)CC1	8.9	
O=c1cc(-c2ccc(O)c(O)c2)oc2cc(O)cc(O)c12	4.82	
Clc1cccc(Nc2ccn3ncc(-c4cccnc4)c3n2)c1		5.48
O=C1NCc2c1c1c3ccccc3[nH]c1c1[nH]c3ccccc3c21	3.9	
c1csc(-c2cnc3ccc(NCC4CC4)nn23)c1		4.3
COc1ccc2c(c1)/C(=C/c1cnc[nH]1)C(=O)N2		4.35
O=c1cc(-c2ccccc2)oc2cc(O)cc(O)c12	5.74	
O=Nc1c(-c2c(O)[nH]c3ccc(S(O)(O)O)cc23)[nH]c2ccccc12	5.7	
CC(C)c1nn(-c2c(Cl)cccc2Cl)c2nc(Cc3ccc(OCCO)cc3)[nH]c(=O)c12	3.5	
O=C1NC(=O)C(c2c[nH]c3ccccc23)=C1c1c[nH]c2ccccc12	3.4	
